PubChem BioAssay (NCI)
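Assay format: 96-well plates, 48-hour exposure. TGI: total growth inhibition.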

Legend:
Assay in all cases: growth of human tumour cells (NCI), 48 h
[1] = system: 786-0 renal
[2] = system: A498 renal
[3] = system: A549 NSCLC
[4] = system: ACHN renal
[5] = system: BT-549 breast
[6] = system: CAKI-1 renal
[7] = system: CCRF-CEM leukemia
[8] = system: COLO 205 colon
[9] = system: DU-145 prostate
[10] = system: EKVX NSCLC
[11] = system: HCC-2998 colon
[12] = system: HCT-116 colon
[13] = system: HCT-15 colon
[14] = system: HL-60(TB) leukemia
[15] = system: HOP-62 NSCLC
[16] = system: HS 578T breast
[17] = system: HT29 colon
[18] = system: IGROV1 ovarian
[19] = system: K-562 leukemia
[20] = system: KM12 colon
[21] = system: LOX IMVI melanoma
[22] = system: M14 melanoma
[23] = system: MALME-3M melanoma
[24] = system: MCF7 breast
[25] = system: MDA-MB-231 breast
[26] = system: MDA-MB-435
[27] = system: MDA-N
[28] = system: MOLT-4 leukemia
[29] = system: NCI-H226 lung
[30] = system: NCI-H23 lung
[31] = system: NCI-H460 lung
[32] = system: NCI-H522 lung
[33] = system: NCI/ADR-RES ovarian
[34] = system: OVCAR-3 ovarian
[35] = system: OVCAR-4 ovarian
[36] = system: OVCAR-5 ovarian
[37] = system: OVCAR-8 ovarian
[38] = system: PC-3 prostate
[39] = system: RPMI-8226 leukemia
[40] = system: SF-268 CNS
[41] = system: SF-295 CNS
[42] = system: SF-539 CNS
[43] = system: SK-MEL-2 melanoma
[44] = system: SK-MEL-28 melanoma
[45] = system: SK-MEL-5 melanoma
[46] = system: SK-OV-3 ovarian
[47] = system: SN12C renal
[48] = system: SNB-19 CNS
[49] = system: SNB-75 CNS
[50] = system: SR leukemia
[51] = system: SW-620 colon
[52] = system: T-47D breast
[53] = system: TK-10 renal
[54] = system: U251 CNS
[55] = system: UACC-257 melanoma
[56] = system: UACC-62 melanoma
[57] = system: UO-31 renal
[58] = system: HOP-92 NSCLC
[59] = system: RXF 393 renal

SMILES: N#C/C(N)=C(\C#N)NC=NCc1ccccc1
- TGI [1]: > 100 µM
- TGI [2]: > 100 µM
- TGI [3]: > 100 µM
- TGI [4]: > 100 µM
- TGI [5]: > 100 µM
- TGI [6]: > 100 µM
- TGI [7]: > 100 µM
- TGI [8]: > 100 µM
- TGI [9]: > 100 µM
- TGI [10]: > 100 µM
- TGI [11]: > 100 µM
- TGI [12]: > 100 µM
- TGI [13]: > 100 µM
- TGI [14]: > 100 µM
- TGI [15]: > 100 µM
- TGI [16]: > 100 µM
- TGI [17]: > 100 µM
- TGI [18]: > 100 µM
- TGI [19]: > 100 µM
- TGI [20]: > 100 µM
- TGI [21]: > 100 µM
- TGI [22]: > 100 µM
- TGI [23]: > 100 µM
- TGI [24]: > 100 µM
- TGI [25]: > 100 µM
- TGI [26]: > 100 µM
- TGI [27]: > 100 µM
- TGI [28]: > 100 µM
- TGI [29]: > 100 µM
- TGI [30]: > 100 µM
- TGI [31]: > 100 µM
- TGI [32]: > 100 µM
- TGI [33]: > 100 µM
- TGI [34]: > 100 µM
- TGI [35]: > 100 µM
- TGI [36]: > 100 µM
- TGI [37]: > 100 µM
- TGI [38]: > 100 µM
- TGI [39]: > 100 µM
- TGI [40]: > 100 µM
- TGI [41]: > 100 µM
- TGI [42]: > 100 µM
- TGI [43]: > 100 µM
- TGI [44]: > 100 µM
- TGI [45]: > 100 µM
- TGI [46]: > 100 µM
- TGI [47]: > 100 µM
- TGI [48]: > 100 µM
- TGI [49]: > 100 µM
- TGI [50]: > 100 µM
- TGI [51]: > 100 µM
- TGI [52]: > 100 µM
- TGI [53]: > 100 µM
- TGI [54]: > 100 µM
- TGI [55]: > 100 µM
- TGI [56]: > 100 µM
- TGI [57]: > 100 µM

SMILES: CC(C)(C)C(=O)OC(N)/C=C/c1ccccc1 (stereo not drawn)
- TGI [1]: > 100 µM
- TGI [2]: > 100 µM
- TGI [3]: > 100 µM
- TGI [4]: > 100 µM
- TGI [5]: > 100 µM
- TGI [6]: > 100 µM
- TGI [7]: > 100 µM
- TGI [8]: > 100 µM
- TGI [10]: > 100 µM
- TGI [11]: > 100 µM
- TGI [12]: > 100 µM
- TGI [13]: > 100 µM
- TGI [14]: > 100 µM
- TGI [15]: > 100 µM
- TGI [58]: > 100 µM
- TGI [16]: > 100 µM
- TGI [17]: > 100 µM
- TGI [18]: > 100 µM
- TGI [20]: > 100 µM
- TGI [22]: > 100 µM
- TGI [23]: > 100 µM
- TGI [24]: > 100 µM
- TGI [25]: > 100 µM
- TGI [26]: > 100 µM
- TGI [27]: > 100 µM
- TGI [28]: > 100 µM
- TGI [29]: > 100 µM
- TGI [30]: > 100 µM
- TGI [31]: > 100 µM
- TGI [32]: > 100 µM
- TGI [33]: > 100 µM
- TGI [34]: > 100 µM
- TGI [35]: > 100 µM
- TGI [36]: > 100 µM
- TGI [37]: > 100 µM
- TGI [38]: > 100 µM
- TGI [39]: > 100 µM
- TGI [59]: > 100 µM
- TGI [41]: > 100 µM
- TGI [42]: > 100 µM
- TGI [43]: > 100 µM
- TGI [44]: > 100 µM
- TGI [45]: > 100 µM
- TGI [46]: > 100 µM
- TGI [47]: > 100 µM
- TGI [49]: > 100 µM
- TGI [50]: > 100 µM
- TGI [51]: > 100 µM
- TGI [52]: > 100 µM
- TGI [54]: > 100 µM
- TGI [55]: > 100 µM
- TGI [56]: > 100 µM
- TGI [57]: > 100 µM

SMILES: COC(=O)c1c(O)ccc2c1c1c(n2Cc2ccc(Cl)cc2Cl)C(=O)c2ccccc2C1
- TGI [1]: > 100 µM
- TGI [2]: > 100 µM
- TGI [3]: > 100 µM
- TGI [5]: > 100 µM
- TGI [7]: 71.3 µM
- TGI [8]: > 100 µM
- TGI [9]: > 100 µM
- TGI [12]: > 100 µM
- TGI [13]: > 100 µM
- TGI [14]: > 100 µM
- TGI [15]: > 100 µM
- TGI [16]: > 100 µM
- TGI [17]: > 100 µM
- TGI [18]: > 100 µM
- TGI [19]: > 100 µM
- TGI [20]: > 100 µM
- TGI [21]: 61.9 µM
- TGI [22]: > 100 µM
- TGI [23]: > 100 µM
- TGI [24]: 89.9 µM
- TGI [25]: > 100 µM
- TGI [26]: > 100 µM
- TGI [27]: > 100 µM
- TGI [28]: > 100 µM
- TGI [29]: 73.2 µM
- TGI [30]: > 100 µM
- TGI [31]: > 100 µM
- TGI [33]: > 100 µM
- TGI [34]: > 100 µM
- TGI [35]: 70.6 µM
- TGI [37]: > 100 µM
- TGI [38]: 73.3 µM
- TGI [39]: 49 µM
- TGI [59]: 78.8 µM
- TGI [40]: > 100 µM
- TGI [42]: > 100 µM
- TGI [43]: > 100 µM
- TGI [44]: > 100 µM
- TGI [45]: > 100 µM
- TGI [46]: > 100 µM
- TGI [47]: 55.2 µM
- TGI [48]: > 100 µM
- TGI [49]: 58.7 µM
- TGI [50]: > 100 µM
- TGI [51]: > 100 µM
- TGI [52]: > 100 µM
- TGI [53]: > 100 µM
- TGI [54]: > 100 µM
- TGI [55]: > 100 µM
- TGI [56]: > 100 µM
- TGI [57]: > 100 µM

SMILES: Nc1nc(N)c(N=Nc2ccc([As](=O)(O)O)cc2)c(=O)[nH]1
- TGI [1]: > 100 µM
- TGI [2]: > 100 µM
- TGI [3]: > 100 µM
- TGI [4]: > 100 µM
- TGI [5]: > 100 µM
- TGI [6]: > 100 µM
- TGI [7]: > 100 µM
- TGI [8]: > 100 µM
- TGI [9]: > 100 µM
- TGI [10]: > 100 µM
- TGI [11]: > 100 µM
- TGI [12]: > 100 µM
- TGI [13]: > 100 µM
- TGI [14]: > 100 µM
- TGI [15]: > 100 µM
- TGI [16]: > 100 µM
- TGI [17]: > 100 µM
- TGI [18]: > 100 µM
- TGI [19]: > 100 µM
- TGI [20]: > 100 µM
- TGI [21]: > 100 µM
- TGI [22]: > 100 µM
- TGI [23]: > 100 µM
- TGI [24]: > 100 µM
- TGI [25]: > 100 µM
- TGI [26]: > 100 µM
- TGI [27]: > 100 µM
- TGI [28]: > 100 µM
- TGI [29]: > 100 µM
- TGI [30]: > 100 µM
- TGI [31]: > 100 µM
- TGI [32]: > 100 µM
- TGI [33]: > 100 µM
- TGI [34]: > 100 µM
- TGI [35]: > 100 µM
- TGI [36]: > 100 µM
- TGI [37]: > 100 µM
- TGI [38]: > 100 µM
- TGI [39]: > 100 µM
- TGI [59]: > 100 µM
- TGI [40]: > 100 µM
- TGI [41]: > 100 µM
- TGI [43]: > 100 µM
- TGI [44]: > 100 µM
- TGI [45]: > 100 µM
- TGI [46]: > 100 µM
- TGI [47]: > 100 µM
- TGI [48]: > 100 µM
- TGI [49]: > 100 µM
- TGI [50]: > 100 µM
- TGI [51]: > 100 µM
- TGI [52]: > 100 µM
- TGI [53]: > 100 µM
- TGI [54]: > 100 µM
- TGI [55]: > 100 µM
- TGI [56]: > 100 µM
- TGI [57]: > 100 µM
